For series [1] the following is noted: going from pH 6 to pH 8.9; cited from earlier work.
The test system of series [2] is pool of microorganisms. In words: Rapid decontamination and long term preservation challenge test in titanium dioxide mineral slurry (pH 8.35). It counts as cell-based. The following applies: for concentration, used alone, obtaining 4 log10 reduction in microorganisms: 48 hours after second inoculation at seven days; for effective concentration, used alone (4 log10 reduction): pH 8.35, 30 min after initial inoculation. The method, then:
(§1) The antimicrobial profiles of DBNPA, BNPD, and a combination of DBNPA-BNPD (3:1 w/w) are tested in a commercial water-based latex (UCAR Latex 626 available from The Dow Chemical Company), and a generic mineral slurry sample. Commercial latexes vary in pH values from slightly acidic to basic. For the purpose of this study, a latex with a basic pH (8.7) is selected, as it is known that both BNPD and DBNPA have limited chemical stability at alkaline pH. Mineral slurries vary in pH, but most often they are alkaline. For the purpose of this study, a titanium dioxide slurry with pH of 8.35 was selected.
(§2) Both the latex and the mineral slurry are free of contamination prior to testing. At time zero, the test matrices are inoculated with a pool of microorganisms (listed below) to a final concentration of 5×10^6 CFU/ml. Aliquots of the contaminated samples are weighed into a series of sterile containers followed by addition of the appropriate volume of biocide required to achieve the desired concentration. A control sample, lacking biocide, is included in each evaluation. Following biocide addition, samples are thoroughly mixed and aliquots are removed and streaked to tryptic soy agar plates, at various time points, for the enumeration of surviving microorganisms. All agar plates are incubated at 30° C. for 72 hours prior to assessment of viable bacteria. In all the ensuing results, a minimum of 4 log10 reduction in microorganism concentration, as compared to the control sample, is considered significant efficacy.
Microorganisms: Twenty-four hour tryptic soy broth cultures are combined in equal parts for formulation inoculation at a final concentration of 5×10^6 CFU/ml. Organisms utilized: Pseudomonas aeruginosa (ATCC#15442), Pseudomonas aeruginosa (ATCC#10145), Staphylococcus aureus (ATCC#6538), Burkholderia cepacia (ATCC#25416), Pseudomonas fluorescens B (environmental isolate), Pseudomonas oleovorans (environmental isolate), Enterococcus sulfureus (environmental isolate). […] The samples are stored at ambient conditions for three or seven days, respectively, at which point a second inoculation is administered, to test the long term preservation efficacy of the biocides. Aliquots are removed at 4 h and/or 24 h or 48 h following the second inoculation, and streaked on tryptic soy agar plates, for the enumeration of surviving microorganisms.
(§3) Synergy: The synergy indexes reported here are measured and calculated using Formula 1. In this approach, a synergy index (SI) of 1 indicates additivity. If the synergy index is less than 1, synergy has occurred, while a synergy index greater than 1 indicates antagonism.
(§4) Synergy Index=CA/Ca+CB/Cb (1)
Ca=concentration of antimicrobial A, alone, producing a predetermined end-point […]

In series [3] the test system is pool of microorganisms. As to the kind of experiment: Rapid decontamination and long term preservation challenge test in UCAR Latex 626 (pH 8.7). In kind it is cell-based. To be noted: for active concentration, used alone, achieving 4 log10 reduction in bacterial concentration: UCAR Latex 626, pH 8.7, 1 h after initial inoculum; for concentration, used alone, achieving decontamination: 24 h after second inoculation at seven days. As for the experimental part:
as §1, §2
Microorganisms: Twenty-four hour tryptic soy broth cultures are combined in equal parts for formulation inoculation at a final concentration of 5×10^6 CFU/ml. Organisms utilized: Pseudomonas aeruginosa (ATCC#15442), Pseudomonas aeruginosa (ATCC#10145), Staphylococcus aureus (ATCC#6538), Burkholderia cepacia (ATCC#25416), Pseudomonas fluorescens B (environmental isolate), Pseudomonas oleovorans (environmental isolate), Enterococcus sulfureus (environmental isolate). To assess the rapid decontamination efficacy of the biocides, aliquots are removed at 60 minutes following the initial inoculation, and streaked on tryptic soy agar plates for the enumeration of surviving microorganisms. The samples are stored at ambient conditions for three or seven days, respectively, at which point a second inoculation is administered, to test the long term preservation efficacy of the biocides. Aliquots are removed at 4 h and/or 24 h or 48 h following the second inoculation, and streaked on tryptic soy agar plates, for the enumeration of surviving microorganisms.
as §3, §4
Ca=concentration of antimicrobial A, alone, producing a predetermined end-point
Cb=concentration of antimicrobial B, alone, producing a predetermined end-point
CA and CB=the concentrations of antimicrobials A and B, respectively, together in a mixture, that produce a predetermined end-point

As to `N#CC(Br)(Br)C(N)=O` [DBNPA, 2,2-dibromo-3-nitrilopropionamide], the “factor of increase of rate of disappearance” value in series [1] is “about 450”. For the same compound, in series [2], the “concentration, used alone, obtaining 4 log10 reduction in microorganisms” value is recorded as 400 ppm and the “effective concentration, used alone (4 log10 reduction)” value came out at 23.4 ppm. In addition, in series [3], the “active concentration, used alone, achieving 4 log10 reduction in bacterial concentration” value was 140 ppm. For the same compound, in series [3] (UCAR Latex 626), the “concentration, used alone, achieving decontamination” value is “did not achieve decontamination”.
Consider `O=[N+]([O-])C(Br)(CO)CO` [BNPD, 2-bromo-2-nitro-1,3-propanediol], for which, in series [2], the “concentration, used alone, obtaining 4 log10 reduction in microorganisms” value turned out to be 35.1 ppm and the “effective concentration, used alone (4 log10 reduction)” value is greater than 600 ppm. For the same compound, in series [3], the “active concentration, used alone, achieving 4 log10 reduction in bacterial concentration” value is recorded as greater than 600 ppm. In addition, the “concentration, used alone, achieving decontamination” value in series [3] (UCAR Latex 626) is given as 95.7 ppm. The “effective active concentration (4 log10 reduction)” value in series [3] (UCAR Latex 626, 24 h after second inoculation at three days) is 95.7 ppm.
